Data on 2 compounds can be found in patent US12036212B2, “Enhancement of tumor response to chemotherapy by activation of the asmase/ceramide pathway through timed administration of a short-acting anti-angiogenic agent” (Memorial Sloan-Kettering Cancer Center, priority 2014, dated 2024).

For experiment [1], the system named is ceramide. Nature of the experiment: Ceramide generation (diacylglycerol kinase assay) in BAEC. The format is cell-based, bovine. To be noted: paclitaxel 100 nM; for Ceramide generation: etoposide 50 μM, cisplatin 0.1-50 μM. The method, then: BAEC were established from the intima of bovine aorta as described^1. Stock cultures were grown in 100-mm dishes in Dulbecco's modified Eagle's medium (DMEM) supplemented with glucose (1 g/liter), 5% heat-inactivated calf serum (CS), penicillin (50 units/ml), and streptomycin (50 μg/ml). Purified human recombinant bFGF (1 ng/ml; R&D Systems, Inc., Minneapolis, MN) was added every other day during the exponential growth phase. […] These plateau phase cells were either used for experiments, or further sub-cultured (up to a maximum of 10 times) at a split ratio of 1:8. For sub-culturing, monolayers were dissociated with STV (0.05% trypsin and 0.02% EDTA in PBS) for 2-3 min at 22° C., washed twice in 5% CS-DMEM, and resuspended in DMEM with supplements as above. These mild conditions of trypsinization were sufficient to detach cells but not injure, stimulate, or affect cell function in a detectable way. BAEC were maintained at 37° C. in 10% CO2 humidified incubators.
After treatment, cells were placed on ice, washed with cold PBS, and lipids were extracted by addition of scraped cells in methanol to an equal volume of chloroform and 0.6 volume of buffered saline/EDTA solution (135 mM NaCl, 4.5 mM KCl, 1.5 mM CaCl2), 0.5 mM MgCl2, 5.6 mM glucose, 10 mM HEPES pH 7.2, 10 mM EDTA). Lipids in the organic phase extract were dried under N2 and subjected to mild alkaline hydrolysis (0.1 N methanolic KOH for 1 hour at 37° C.) to remove glycerophospholipids. Samples were re-extracted, and the organic phase was dried under N2. Ceramide contained in each sample was resuspended in a 100 μl reaction mixture containing 150 μg of cardiolipin, 280 μM diethylenetriaminepentaacetic acid, 51 mM octyl-β-glucopyranoside (Calbiochem), 50 mM NaCl, 51 mM imidazole, 1 mM EDTA, 12.5 mM MgCl2, 2 mM dithiothreitol, 0.7% glycerol, 70 μM β-mercaptoethanol, 1 mM ATP, 10 μCi of [γ-^32P]ATP, 35 μg/ml Escherichia coli diacylglycerol kinase (Calbiochem) at pH 6.5. After 30 minutes at room temperature, the reaction was stopped by extraction of lipids with 1 ml of chloroform:methanol:1 N HCl (100:100:1), 170 μl of buffered saline solution (BSS) (135 mM NaCl, 1.5 mM CaCl2, 0.5 mM MgCl2, 5.6 mM glucose, and 10 mM HEPES (pH 72), and 30 μl of 100 mM EDTA. The lower organic phase was dried under N2. Ceramide-1 phosphate was resolved by thin-layer chromatography on silica gel 60 plates (Whatman) using a solvent system of chloroform:methanol:acetic acid (65:15:5, v/v/v) and detected by autoradiography, and incorporated ^32P was quantified by liquid scintillation counting. The level of ceramide was determined by comparison with a standard curve generated concomitantly of known amounts of ceramide.
To test the effect of chemotherapy on ASMase signaling and ceramide production, BAEC were treated with paclitaxel (100 nM) and ASMase activity was determined by radioenzymatic assay (Rotolo et al, infra) using [^14C-methylcholine] sphingomyelin (Amersham) as substrate (FIG. 1A). […] Ceramide generation was monitored using the diacylglycerol kinase assay (Stancevic et al. PLoS ONE 8, e69025, 2013). […]
(§1) To determine the generality of the results observed, experiments were carried out using an additional endothelial cell line, human coronary artery endothelial cells (HCAEC); experiments were also performed using a different chemotherapeutic agent. […] Next, HCAEC were treated with paclitaxel (100 nM) (data not shown) and etoposide (50 μM) (FIG. 1F), and ceramide generation was evaluated. […]

Experiment [2] deals with ceramide. Nature of the experiment: Ceramide generation in HCAEC. The format is cell-based, human. To be noted: paclitaxel 100 nM, etoposide 50 μM, cisplatin 0.1-50 μM. The method, then: (§2) HCAEC were obtained from Clonetics™ Coronary Artery Endothelial Cell Systems (Cambrex Bio Science Inc.). For HCAEC culturing and sub-culturing Clonetics cell system components were used: EBM®-2, Endothelial Cell Basal Medium-2 with addition of Clonetics EGM-2-MV SingleQuots containing growth supplements (Cambrex) (Biomedical Technologies, Inc.). For sub-culturing, monolayers were dissociated with Clonetics® Trypsin/EDTA solution for 2-3 min at 22° C. at a split ratio of 1:4 to expand the cell population for experiments. HCAEC cultures were maintained at 37° C. in 5% CO2 humidified incubators.
After treatment, cells were placed on ice, washed with cold PBS, and lipids were extracted by addition of scraped cells in methanol to an equal volume of chloroform and 0.6 volume of buffered saline/EDTA solution (135 mM NaCl, 4.5 mM KCl, 1.5 mM CaCl2), 0.5 mM MgCl2, 5.6 mM glucose, 10 mM HEPES pH 7.2, 10 mM EDTA). […] After 30 minutes at room temperature, the reaction was stopped by extraction of lipids with 1 ml of chloroform:methanol:1 N HCl (100:100:1), 170 μl of buffered saline solution (BSS) (135 mM NaCl, 1.5 mM CaCl2, 0.5 mM MgCl2, 5.6 mM glucose, and 10 mM HEPES (pH 72), and 30 μl of 100 mM EDTA. The lower organic phase was dried under N2. Ceramide-1 phosphate was resolved by thin-layer chromatography on silica gel 60 plates (Whatman) using a solvent system of chloroform:methanol:acetic acid (65:15:5, v/v/v) and detected by autoradiography, and incorporated ^32P was quantified by liquid scintillation counting. The level of ceramide was determined by comparison with a standard curve generated concomitantly of known amounts of ceramide.
as §1

Another experiment deals with ASMase. Briefly: ASMase activation in HCAEC. The settings on record: cisplatin 0.1-50 μM. The format is cell-based, human. As for the experimental part: as §2
ASMase activity was quantified by radioenzymatic assay using [^14C-methylcholine]sphingomyelin (Amersham) as substrate as described (Schissel et al. J Biol Chem, 271, 18431-18436, 1996). Cell lysates were incubated with [^14C-methylcholine]-sphingomyelin substrate (0.026 mCi/9.5 nmol) in 250 mM sodium acetate, pH 5.0 supplemented with 0.1% Triton X-100 and 1 mM EDTA or 0.1 mM ZnCl. Reactions were terminated after 1 h with CHCl3:MeOH:1N HCl (100:100:1, v/v/v), and [^14C-methylcholine]phosphocholine product in the aqueous layer of the Folch extract was quantified using a Beckman Packard 2200 CA Tricarb scintillation counter. For detection of ASMase activity in patients, 10 μl of serum was used. […]

For the compound `CC(=O)O[C@H]1C(=O)[C@@]2(C)[C@H]([C@H](OC(=O)c3ccccc3)[C@]3(O)C[C@H](OC(=O)[C@H](O)[C@@H](NC(=O)c4ccccc4)c4ccccc4)C(C)=C1C3(C)C)[C@]1(OC(C)=O)CO[C@@H]1C[C@@H]2O` [paclitaxel], the “Ceramide generation persisted for” value in the experiment with ceramide [1] stood at 30 min. Further, the Ceramide generation result with ceramide [1] is listed as “peaked within minutes”; in the experiment on ceramide [2], “leads to the generation of ceramide”.
Regarding `N.N.[Cl][Pt][Cl]` [cisplatin], the ASMase activation result in the experiment with ASMase is “failed to activate ASMase”. In addition, the Ceramide generation result is “failed to activate ASMase and result in generation of ceramide” in the experiment with ceramide [1]; “failed to activate ASMase and result in generation of ceramide” with ceramide [2].
